How the values were obtained:
mitochondrial function = conditions: FIG. 1 legend, known inhibitors; cited from earlier work
Candida albicans CaCi-2 = test: Primary assay: C. albicans CaCi-2 growth inhibition (Alamar Blue); assay type: cell-based
Candida albicans CaCi-17 = test: Primary assay: C. albicans CaCi-17 growth inhibition (Alamar Blue); assay type: cell-based; conditions: Candida albicans, CACI17, Tables 9, 10, 12; AID 623897; read-out: C. albicans CaCi-17 growth inhibition IC50
[1] = tested on: NIH-3T3 mammalian fibroblasts; test: Counterscreen mammalian cell toxicity assay (Alamar Blue); assay type: cell-based, murine; conditions: Mus musculus, NIH3T3, Tables 9, 10, 12; AID 602394; read-out: Murine 3T3 fibroblasts growth inhibition (fibroblast toxicity) IC50
Summary of the method: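 Quiescent NIH-3T3 fibroblasts, cultured overnight, exposed to 100 nL pinned compound for 48 h at 37° C, 5% CO2. Alamar Blue added to 1:200 final, 2-3 h further incubation; fluorescence (RFU) read as relative cell growth.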

[2] = Plasma stability, human plasma; assay type: in vitro ADME; conditions: 37° C., 5 μM
Description: (§1) Plasma stability was determined at 37° C. at 5 hours in both human and mouse plasma. Each compound was prepared in duplicate at 5 μM in plasma diluted 50/50 (v/v) with PBS pH 7.4 (0.95% acetonitrile, 0.05% DMSO). Compounds were incubated at 37° C. for 5 hours with a 250-rpm orbital shake with time points taken at 0 hours and 5 hours.

[3] = Plasma stability, mouse plasma; assay type: in vitro ADME; conditions: 37° C., 5 μM
Description: as §1

[4] = Plasma protein binding by equilibrium dialysis, human plasma; assay type: in vitro ADME; conditions: pH 7.4, 37° C., read-out: Plasma protein binding (% bound), Human (converted)
Description: (§2) Plasma protein binding was determined by equilibrium dialysis using the Rapid Equilibrium Dialysis (RED) device (Pierce Biotechnology, Rockford, Ill.) for both human and mouse plasma. Each compound was prepared in duplicate at 5 μM in plasma (0.95% acetonitrile, 0.05% DMSO) and added to one side of the membrane (200 μL) with PBS pH 7.4 added to the other side (350 μL). Compounds were incubated at 37° C. for 5 hours with a 250-rpm orbital shake.

[5] = Plasma protein binding by equilibrium dialysis, mouse plasma; assay type: in vitro ADME; conditions: pH 7.4, murine plasma, 37° C., read-out: Plasma protein binding (% bound), Murine
Description: as §2

Compound	Inhibition of mitochondrial function (in words) (mitochondrial function)	IC50 (Candida albicans CaCi-2; Candida albicans, CACI2, Tables 9, 10, 12, AID 623899, read-out: C. albicans CaCi-2 growth inhibition IC50)	IC50 (Candida albicans CaCi-17)	IC50 [1]	Plasma stability (% remaining after 5 hours), Human [2]	Plasma stability (% remaining after 5 hours), Murine [3]	Activity against C. albicans (Candida albicans CaCi-2; CaCi-2, or both test strains (CaCi-2, CaCi-17) where the sentence names none)	fraction unbound at 5 h, 5 μM [4]	fraction unbound at 5 h, 5 μM [5]
Antimycin	potent, but non-selective	–	–	–	–	–	–	–	–
CCOC(=O)N1C(=O)C2(CCCCC2)N(c2ccc(C)cc2)C1=S [CID 3889161]	–	300 nM	8.5 µM	> 26 µM	<1.0%	<1.0%	–	–	–
Cc1ccc(N2C(=S)N(C)C(=O)C23CCCCC3)cc1 [CID 56604835]	–	–	–	–	95.7%	96.6%	no activity	0.014	0.001

Reference: patent publication US9944607B2, “Thiohydantoin derivatives and uses thereof” (Whitehead Institute for Biomedical Research, priority 2012, dated 2018)
